According to ChEMBL document CHEMBL4017450, “Synthesis and carbonic anhydrase inhibition of a series of SLC-0111 analogs” (Bioorg Med Chem, 2017):

Tests used:
Carbonic anhydrase 9 = Carbonic anhydrase 9 (Homo sapiens, UniProt Q16790)
Description: Inhibition of human recombinant carbonic anhydrase 9 preincubated for 15 mins prior to testing measured for 10 to 100 secs by phenol red-based stopped-flow CO2 hydration assay

Carbonic anhydrase 2 = Carbonic anhydrase 2 (Homo sapiens, UniProt P00918); assay: Inhibition of human recombinant carbonic anhydrase 2 preincubated for 15 mins prior to testing measured for 10 to 100 secs by phenol red-based stopped-flow CO2 hydration assay
Carbonic anhydrase 12 = Carbonic anhydrase 12 (Homo sapiens, UniProt O43570); assay: Inhibition of human recombinant carbonic anhydrase 12 preincubated for 15 mins prior to testing measured for 10 to 100 secs by phenol red-based stopped-flow CO2 hydration assay
Sequence of Carbonic anhydrase 12 (O43570 whole entry): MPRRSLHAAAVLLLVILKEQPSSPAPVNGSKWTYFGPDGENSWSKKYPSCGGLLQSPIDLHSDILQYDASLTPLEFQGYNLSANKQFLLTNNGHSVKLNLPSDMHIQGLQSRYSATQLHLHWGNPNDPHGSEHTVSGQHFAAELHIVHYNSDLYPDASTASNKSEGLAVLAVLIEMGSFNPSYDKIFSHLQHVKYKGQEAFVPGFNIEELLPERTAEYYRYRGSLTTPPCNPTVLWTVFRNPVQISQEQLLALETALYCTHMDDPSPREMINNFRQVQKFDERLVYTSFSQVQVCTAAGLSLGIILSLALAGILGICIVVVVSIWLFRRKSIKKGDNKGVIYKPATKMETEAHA

| Structure (SMILES) | Ki (Carbonic anhydrase 9) [nM] | Ki (Carbonic anhydrase 2) [nM] | Ki (Carbonic anhydrase 12) [nM] |
| --- | --- | --- | --- |
| NS(=O)(=O)c1ccc(NC(=O)Nc2ccccc2F)cc1 | 7.7 |  |  |
| NS(=O)(=O)c1ccc(NC(=O)Nc2cccc(Cl)c2)cc1 | 8.4 | 10 | 8.5 |
| NS(=O)(=O)c1ccc(NC(=O)Nc2cc(C(F)(F)F)ccc2F)cc1 | 7.4 |  |  |
| CC(=O)c1ccc(NC(=O)Nc2cccc(S(N)(=O)=O)c2)cc1 | 178 |  |  |
| NS(=O)(=O)c1ccc(NC(=O)Nc2ccc(Cl)cc2F)cc1 | 5.1 |  |  |
| NS(=O)(=O)c1ccc(NC(=O)Nc2ccc(F)c(F)c2F)cc1 | 9.6 |  |  |
| NS(=O)(=O)c1cccc(NC(=O)Nc2ccc(I)cc2)c1 | 116 |  |  |
| CC(C)c1ccccc1NC(=O)Nc1cccc(S(N)(=O)=O)c1 | 349 |  |  |
| NS(=O)(=O)c1ccc(NC(=O)Nc2cc(F)c(F)cc2F)cc1 | 7.6 |  |  |
| NS(=O)(=O)c1cccc(NC(=O)Nc2cccc([N+](=O)[O-])c2)c1 | 154 |  |  |
| NS(=O)(=O)c1ccc(NC(=O)Nc2ccc(F)cc2F)cc1 | 3.7 |  |  |
| NS(=O)(=O)c1ccc(NC(=O)Nc2cc([N+](=O)[O-])ccc2Cl)cc1 | 8.2 |  |  |
| NS(=O)(=O)c1ccc(NC(=O)Nc2cc(Cl)ccc2Cl)cc1 | 8.9 |  |  |
| NS(=O)(=O)c1cccc(NC(=O)Nc2ccc(F)cc2)c1 | 219 |  |  |
| NS(=O)(=O)c1cccc(NC(=O)Nc2c(F)c(F)c(F)c(F)c2F)c1 | 162 |  |  |
